From patent US6699505B2, “Method of increasing the efficacy of antibiotics by compexing with cyclodextrins” (Massachusetts Institute of Technology, priority 2000, dated 2004)

Key:
B. forsythus = test: Zone of inhibition of PLGA chips in wells of seeded agar plates; format: cell-based; conditions: for zone of inhibition of bacterial growth: PLGA chips 4 mm×5 mm×0.5 mm in wells, B. forsythus agar, anaerobic 37° C., measured daily
Source text: (§1) FIG. 1 is a graph charting the change in size of the zone of growth inhibition of the bacterium P. gingivalis over time. The antibiotic being tested (complexed or non-complexed) is applied to a specific point near or within an area of bacterial growth on an agar plate. The bioactive agent diffuses from the application point and causes lysis of already growing bacteria, or inhibition of growth of bacteria within the zone of diffusion. The diameter of bacterial lysis or growth inhibition is a measure of the potency of the bioactive agent. […] A relatively small zone of lysis or growth inhibition indicates a less biologically active agent.
(§2) Increased biological activity of the antibiotic chlorhexidine was tested by placing chips composed of chorhexidine (C) and clorhexidine digluconate (Cg) complexed with hydroxypropyl-β-cyclodextrin (H) or methylated β-cyclodextrin adjacent to a tooth in agar seeded with P. gingivalis or B. forsythus. The agar plates were incubated to allow growth of the bacterium for 12-15 days and the zone of inhibition of bacterial growth around each chip was measured. An increase in biological activity was measured by an increase in the size of the zone of inhibition around the chip containing the complexed antibiotic compared to the size of the zone around the chip containing the uncomplexed antibiotic.
(§3) More particularly, the method used the following steps:
(§4) Mix: 5 g Trypticase Soy Agar
(§5) 6.5 g Brain Heart Infusion
(§6) Autoclave mixture for 15 minutes at 121 degree Celsius.
(§7) Cool to 50 degrees Celsius for 1 hour.
(§8) Add: 12.5 mL defibrinated sheep blood.
(§9) 300 uL N-acetylmuramic acid (100x).
(§10) Prepared B. forsythus and P. gingivalis culture solution with an optical density of 1˜10^9 cells/mL.
(§11) Added 2 mL of bacteria culture into their respective agar solutions.
(§12) Pour 20 mL agar solution into 150 mm diameter petri dishes.
(§13) Place well former into petri dishes.
(§14) Allow agar to harden by cooling to room temperature for 1 hour.
(§15) Place petri dishes in anaerobic chamber at 37° C. in an atmosphere consisting of 80% nitrogen, 10% hydrogen, and 10% carbon dioxide for 2 days.
(§16) Place 4 mm×5 mm×0.5 mm PLGA chips composed of: Cg, C, C/H, Cg/M, M, and H into preformed wells.
(§17) Masses of each component based on 25 wt % of Cg with respect to a 10 mg chip.
(§18) Add MilliQ water into wells to keep chips hydrated.
(§19) Keep petri dishes in anaerobic chamber during entire experiment.
(§20) Measure zones of inhibition daily using electronic calipers from the center of the well.
(§21) Experiments done in triplicate.

P. gingivalis = test: as above; format: cell-based; conditions: PLGA chips 4 mm×5 mm×0.5 mm in wells, anaerobic 37° C., measured daily
Source text: as §1, §2, §3, §4, §5, §6, §7, §8, §9, §10, §11, §12, §13, §14, §15, §16, §17, §18, §19, §20, §21

| Structure (SMILES) | zone of inhibition (B. forsythus; B. forsythus, FIG. 1 right panel) | zone of inhibition of bacterial growth (B. forsythus) | zone of inhibition of bacterial growth (P. gingivalis) |
| --- | --- | --- | --- |
| [H]/N=C(\N/C(=N/[H])NCCCCCCNC(=N)NC(=N)Nc1ccc(Cl)cc1)Nc1ccc(Cl)cc1 [C, Chlorhexidine] | about 40 mm | statistically similar | statistically similar |
| N=C(NCCCCCCNC(=N)NC(=N)Nc1ccc(Cl)cc1)NC(=N)Nc1ccc(Cl)cc1.O=C(O)[C@H](O)[C@@H](O)[C@H](O)[C@H](O)CO.O=C(O)[C@H](O)[C@@H](O)[C@H](O)[C@H](O)CO [Cg, Chlorhexidine Digluconate] | – | statistically similar | statistically similar |
